The supplement of paper PMC10307832

Legend:
Assay in all cases: relative viability (nuclei count vs DMSO), 5 days (fraction); higher = more cells survive
[1] = compound: O=C(O)c1ccc2c(c1)nc(Nc1cccc(Cl)c1)c1ccncc12 [Silmitasertib] + C[C@]1(O)C[C@@H](c2nc(-c3ccc4ccc(-c5ccccc5)nc4c3)c3c(N)nccn32)C1 [Linsitinib] (partner 1 µM)
How it was run: (§1)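 Nuclei were stained with Hoechst during a one-step fixation (final 0.05% Triton X-100, 1% formaldehyde, 1 ug/ml Hoechst) carried out 5 days after dosing, then counted on 4× images. The cells, lung cancer lines in 1536-well plates, had been dosed by pin tool the day after seeding with one drug alone or a fixed anchor-drug dose plus five library-drug doses (not always all listed) in √10 steps. Relative viability is the nuclei count in treated wells divided by that in vehicle wells, and each value is the median of duplicate plates.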

[2] = compound: O=C(O)c1ccc2c(c1)nc(Nc1cccc(Cl)c1)c1ccncc12 [Silmitasertib] + Cc1nc(NC(=O)N2CCC[C@H]2C(N)=O)sc1-c1ccnc(C(C)(C)C(F)(F)F)c1 [Alpelisib] (partner 2 µM)
How it was run: as §1

[3] = compound: O=C(O)c1ccc2c(c1)nc(Nc1cccc(Cl)c1)c1ccncc12 [Silmitasertib] + CS(=O)(=O)N1CCN(Cc2cc3nc(-c4cccc5[nH]ncc45)nc(N4CCOCC4)c3s2)CC1 [Pictilisib] (partner 1 µM)
How it was run: as §1

[4] = compound: O=C(O)c1ccc2c(c1)nc(Nc1cccc(Cl)c1)c1ccncc12 [Silmitasertib] + CC(C)C[C@H](NC(=O)[C@H](Cc1ccccc1)NC(=O)c1cnccn1)B(O)O [Bortezomib] (partner 0.002 µM)
How it was run: as §1

[5] = compound: O=C(O)c1ccc2c(c1)nc(Nc1cccc(Cl)c1)c1ccncc12 [Silmitasertib] + C[C@@H](Oc1cc(-c2cnn(C3CCNCC3)c2)cnc1N)c1c(Cl)ccc(F)c1Cl [Crizotinib] (partner 1 µM)
How it was run: as §1

Cell Line	relative viability ([1]; first compound 0.04 µM)	relative viability ([1]; first compound 0.4 µM)	relative viability ([1]; first compound 1.265 µM)	relative viability ([1]; first compound 4 µM)	relative viability ([2]; first compound 0.04 µM)	relative viability ([2]; first compound 0.4 µM)	relative viability ([2]; first compound 1.265 µM)	relative viability ([2]; first compound 4 µM)	relative viability ([3]; first compound 0.04 µM)	relative viability ([3]; first compound 0.4 µM)	relative viability ([3]; first compound 1.265 µM)	relative viability ([3]; first compound 4 µM)	relative viability ([4]; first compound 0.04 µM)	relative viability ([4]; first compound 0.4 µM)	relative viability ([4]; first compound 1.265 µM)	relative viability ([4]; first compound 4 µM)	relative viability ([5]; first compound 0.04 µM)	relative viability ([5]; first compound 0.4 µM)	relative viability ([5]; first compound 1.265 µM)	relative viability ([5]; first compound 4 µM)
201T	1.03	1.02	0.889	1.01	0.908	1	1.01	1.13	0.739	0.665	0.68	0.694	1.03	1.1	1.16	1.2	0.999	0.991	1.07	1.18
A549	0.792		0.507	0.678	1.02	0.918	0.828	0.869	0.582	0.566	0.497	0.513					0.819	0.677	0.777	0.748
A-427	1.11		1.28	1.04	1.07		1.28	1.05	0.858		0.521	0.238	1.1		1.24	0.703	0.888		0.805	0.63
ABC-1	0.788	1.13	0.523	0.294	1.11	0.832	0.546	0.381	1.12	0.561	0.303	0.345	0.402	0.353	0.281	0.226	1.27	1	0.516	0.445
BEN	1.03	0.892	1.01	0.882	1.02	0.783	0.896	0.956	0.628	0.524	0.493	0.476	0.9	0.584	0.644	0.599	0.974	0.827	0.739	0.846
CAL-12T	0.93	0.826	0.652	0.475	1.38	1.21	0.802	0.551	0.532	0.394	0.34	0.232	1.12	0.949	0.777	0.709	0.685	0.423	0.542	0.318
COR-L23	1.02	0.843	0.821	0.638	0.843	0.788	0.759	0.586	0.945	0.586	0.636	0.248	1.15	0.723	0.919	0.932	0.665	0.67	0.727	0.629
COR-L 105	0.977	0.82	0.92	0.574	1.16	1.06	0.803	0.664	0.463	0.377	0.46	0.419	0.803	0.708	0.64	0.414	0.881	0.679	0.702	0.501
ChaGo-K-1									1.26	0.59	0.607	0.486	1.32	0.934	0.957	0.537	1.35	1	1.07	0.931
EKVX	1.15	0.869	0.711	0.677	1.01	0.628	0.739	0.656	0.491	0.356	0.373	0.383	1.12	0.686	0.928	0.59	1.15	0.819	0.653	0.895
EMC-BAC-2	0.891	0.769	0.709	0.686	0.743	0.627	0.558	0.547	0.568	0.472	0.371	0.325	1.05	0.999	1.06	0.784	0.847	0.701	0.653	0.721
EPLC-272H	1.31		0.84	0.862	1.04		0.632	0.763	0.424		0.268	0.169	0.906		0.573	0.491	0.992		0.469	0.407
H3255	1.09	0.944	0.903	0.991	0.811	0.786	0.657	0.549	0.537	0.448	0.414	0.345	0.937	0.848	0.741	0.36	0.888	0.701	0.883	0.864
HARA	1.1	0.753	0.77	0.729	1.08	0.64	0.565	0.545	0.603	0.41	0.334	0.257	1.12	0.812	0.949	0.766	1.1	0.757	0.621	0.88
HCC-15	0.882	0.681	0.671	0.475	0.972	0.683	0.618	0.45	0.772	0.535	0.493	0.238	1.02	0.655	0.856	0.408	0.804	0.603	0.71	0.575
HCC-44	0.7	0.673	0.665	0.691	0.767	0.761	0.769	0.741	0.579	0.452	0.549	0.351	0.858	0.753	0.883	0.49	0.729	0.697	0.839	0.771
HCC-78	0.723	0.469	0.375	0.481	0.417	0.243	0.268	0.319	0.23	0.231	0.226	0.205	0.609	0.333		0.551	0.379	0.31	0.298	0.323
